pIC50: −log10 of the molar value.
Key:
Assay type in all cases: cell-based
[1] = system: 5 TP53 wild type colorectal cancer cell lines; test: Cell proliferation over the cell line panel, Example 2; details: Example 2, panel of 5 lines, 13 nM-10 μM
Experimental: To test the effect of the combination of COMPOUND A and COMPOUND B on cell proliferation cells were plated in black 384-well microplates with clear bottom (Matrix/Thermo Scientific, Catalog number 4332) in 50 μL media per well at cell densities between 500 and 1250 cells/well (Table 1) and allowed to incubate at 37 degrees, 5% CO2 for 24 h. After 24 h one 384-well plate per cell line was prepared for cell counting by microscopy (see below) without receiving treatment (=‘baseline’). The other cell plates were treated by transferring 25 nL of the 2000× compound from drug master plates using an ATS acoustic liquid dispenser (ECD Biosystems) and resulting in a final 1× concentration. COMPOUND A was used over a final concentration range of 13 nM-10 μM, and COMPOUND B was used over a final concentration range of 13 nM-10 μM (7 1:3 dilution steps). […] Caspase 3/7 induction was measured as a proxy for apoptosis induced by the treatments. Cells were treated for 72 h to 96 h depending on their doubling time (Table 1), and Caspase 3/7 activation was measured every 24 h by microscopy using an InCell Analyzer 2000 (GE Healthcare) equipped with a 4× objective and FITC excitation/emission filters. […] All cells per well/treatment were captured in a single image by fluorescence microscopy using an InCell Analyzer 2000 (GE Healthcare) equipped with a 4× objective and DAPI excitation/emission filters. […]

HCT-116 = test: Cell proliferation (cell count by microscopy), Example 2; details: Homo sapiens; HCT-116, single agent, 72 h, cell count relative to DMSO
Experimental: (§1) COMPOUNDS A and B were dissolved in 100% DMSO (Sigma, Catalog number D2650) at concentrations of 20 mM and stored at −20° C. until use. Compounds were arrayed in drug master plates (Greiner, Catalog number 788876) and serially diluted 3-fold (7 steps) at 2000× concentration.
(§2) To test the effect of the combination of COMPOUND A and COMPOUND B on cell proliferation cells were plated in black 384-well microplates with clear bottom (Matrix/Thermo Scientific, Catalog number 4332) in 50 μL media per well at cell densities between 500 and 1250 cells/well (Table 1) and allowed to incubate at 37 degrees, 5% CO2 for 24 h. After 24 h one 384-well plate per cell line was prepared for cell counting by microscopy (see below) without receiving treatment (=‘baseline’). The other cell plates were treated by transferring 25 nL of the 2000× compound from drug master plates using an ATS acoustic liquid dispenser (ECD Biosystems) and resulting in a final 1× concentration. COMPOUND A was used over a final concentration range of 13 nM-10 μM, and COMPOUND B was used over a final concentration range of 13 nM-10 μM (7 1:3 dilution steps). For the combination of COMPOUND A with COMPOUND B the single agents were combined at a fixed ratio of 1:1 at each dilution resulting in 7 combination treatments. […] After compound addition 50 nL of 2 mM CellEvent Caspase-3/7 Green Detection Reagent (ThermoFisher, Catalog number C10423) were added to one of the three replicates using the HP D300 Digital Dispenser (Tecan). Caspase 3/7 induction was measured as a proxy for apoptosis induced by the treatments. Cells were treated for 72 h to 96 h depending on their doubling time (Table 1), and Caspase 3/7 activation was measured every 24 h by microscopy using an InCell Analyzer 2000 (GE Healthcare) equipped with a 4× objective and FITC excitation/emission filters. At the end of the treatment cells were prepared for cell counting by microscopy. Cells were fixed and permeabilised for 45 minutes in 4% PFA (Electron Microscopy Sciences, Catalog number 15714), 0.12% TX-100 (Electron Microscopy Sciences, Catalog number 22140) in PBS (Boston Bioproducts, Catalog number BM-220). After washing cells three times with PBS their DNA was stained for 30 minutes with Hoechst 33342 (ThermoFisher, Catalog number H3570) at a final concentration of 4 μg/mL. Cells were washed three times with PBS and then plates were heat-sealed using a PlateLoc (Agilent Technologies) with aluminum seals (Agilent Technologies, Catalog number 06644-001) and stored at 4° C. until imaging. All cells per well/treatment were captured in a single image by fluorescence microscopy using an InCell Analyzer 2000 (GE Healthcare) equipped with a 4× objective and DAPI excitation/emission filters.
(§3) Images were analyzed after adapting previously described methods (Horn, Sandmann et al. 2011, Nat. Methods 8(4): 341-346) and using the Bioconductor package EBImage in R (Pau, Fuchs et al. 2010, Bioinformatics 26(7):979-981). Objects in both channels, DAPI (for Hoechst/DNA) and FITC (for Caspase 3/7), were segmented separately by adaptive thresholding and counted. A threshold for Caspase 3/7 positive objects was defined manually per cell line after comparing negative controls (DMSO) and positive controls (Staurosporine). By analyzing 17 additional object/nuclei features in the DNA channel (shape and intensity features) debris/fragmented nuclei were identified. To this end per cell line the distributions of the additional features between positive controls (Staurosporine) and negative controls (DMSO) were compared manually. Features that could differentiate between the conditions (e.g. a shift in the distribution of a feature measurement comparing DMSO with Staurosporine) where used to define the ‘debris’ population versus the population of ‘viable’ nuclei. The debris counts were subtracted from raw nuclei counts. The resulting nuclei number was used as measure of cell proliferation (‘cell count’). […]

RKO = test: as above; details: Homo sapiens, single agent, 72 h, cell count relative to DMSO
Experimental: as §1, §2, §3

GP2d = test: as above; details: single agent, 72 h, cell count relative to DMSO, unit from text b187 (micromolar, top dose 10 μM)
Experimental: as §1, §2, §3

LoVo = test: as above; details: Homo sapiens, single agent, 96 h, cell count relative to DMSO
Experimental: as §1, §2, §3

LS-180 = test: as above; details: Homo sapiens, LS180; LS-160 (so in the source), single agent, 72 h, cell count relative to DMSO
Experimental: as §1, §2, §3

| Structure (SMILES) | Single agent growth inhibition, in words [1] | pIC50 (HCT-116) | pIC50 (RKO) | pIC50 (GP2d) | pIC50 (LoVo) | pIC50 (LS-180) |
| --- | --- | --- | --- | --- | --- | --- |
| Cc1nc(NC(=O)N2CCC[C@H]2C(N)=O)sc1-c1ccnc(C(C)(C)C(F)(F)F)c1 [COMPOUND A, (S)-Pyrrolidine-1,2-dicarboxylic acid 2-amide 1-({4-methyl-5-[2-(2,2,2-trifluoro-1,1-dimethyl-ethyl)-pyridin-4-yl]-thiazol-2-yl}-amide)] | inhibited the growth of 2 of the cell lines with micromolar IC50 values, and was active only at the highest dose (10 μM) in the 3 other lines | 5.01 | 5.41 | 6.30 | < 5.00 | < 5.00 |
| COc1cc2c(cc1OC(C)C)[C@H](c1ccc(Cl)cc1)N(c1ccc(N(C)C[C@H]3CC[C@H](N4CCN(C)C(=O)C4)CC3)cc1)C(=O)C2 [COMPOUND B, (S)-1-(4-Chloro-phenyl)-7-isopropoxy-6-methoxy-2-(4-{methyl-[4-(4-methyl-3-oxo-piperazin-1-yl)-trans-cyclohexylmethyl]-amino}-phenyl)-1,4-dihydro-2H-isoquinolin-3-one] | inhibited the growth of cell lines with sub-micromolar to micromolar IC50 values | 7.00 | 5.92 | 6.10 | 6.22 | 6.15 |

From US20180318275A1, “COMBINATION THERAPY USING PI3K INHIBITOR AND MDM2 INHIBITOR” (Novartis AG, priority 2015, published 2018)
